Measurements as given in patent publication US20200187502A1, “MICROBIOCIDAL OXADIAZOLE DERIVATIVES” (SYNGENTA PARTICIPATIONS AG, priority 2017, published 2020).

Experiments:
[1] = test system: Puccinia recondita f. Sp. Tritici; experiment: Fungicidal activity, wheat leaf disc curative (brown rust); assay type: in vivo; details: foliar, 200 ppm in the applied formulation, wheat leaf segments cv. Kanzler, curative (applied 1 day after inoculation), compared to untreated control, 6 to 8 days after application, read-out: disease control
Protocol: (§1) Leaf disks or leaf segments of various plant species are cut from plants grown in a greenhouse. The cut leaf disks or segments are placed in multiwell plates (24-well format) onto water agar. The leaf disks are sprayed with a test solution before (preventative) or after (curative) inoculation. Compounds to be tested are prepared as DMSO solutions (max. 10 mg/ml) which are diluted to the appropriate concentration with 0.025% Tween20 just before spraying. The inoculated leaf disks or segments are incubated under defined conditions (temperature, relative humidity, light, etc.) according to the respective test system. A single evaluation of disease level is carried out 3 to 14 days after inoculation, depending on the pathosystem. Percent disease control relative to the untreated check leaf disks or segments is then calculated.
Wheat leaf segments cv. Kanzler are placed on agar in multiwell plates (24-well format). The leaf segments are then inoculated with a spore suspension of the fungus. Plates were stored in darkness at 19° C. and 75% relative humidity. The formulated test compound diluted in water was applied 1 day after inoculation. The leaf segments were incubated at 19° C. and 75% relative humidity under a light regime of 12 hours light/12 hours darkness in a climate cabinet and the activity of a compound was assessed as percent disease control compared to untreated when an appropriate level of disease damage appears in untreated check leaf segments (6 to 8 days after application).
(§2) The following compounds at 200 ppm in the applied formulation give at least 80% disease control in this test when compared to untreated control leaf disks under the same conditions, which show extensive disease development.

[2] = test system: Glomerella lacenarium (Colletotrichum lacenarium); experiment: Fungicidal activity, liquid culture, cucumber preventative (anthracnose); assay type: cell-based; details: 20 ppm in the applied formulation, liquid culture in PDB, inhibition of growth measured photometrically 3 to 4 days after application, compared to untreated control, read-out: disease control
Procedure, shortened: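 Photometric read-out of fungal growth 3 to 4 days after application, expressed as percent control relative to untreated wells. Plates held at 24 °C. Compound placed in DMSO before adding PDB broth seeded with conidia from cryogenic storage.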

[3] = test system: Puccinia recondita f. Sp. Tritici; experiment: Fungicidal activity, wheat leaf disc preventative (brown rust); assay type: in vivo; details: foliar, 200 ppm in the applied formulation, wheat leaf segments cv. Kanzler, compared to untreated control, 7 to 9 days after application, read-out: disease control
Protocol: as §1
Wheat leaf segments cv. Kanzler were placed on agar in multiwell plates (24-well format) and sprayed with the formulated test compound diluted in water. The leaf disks were inoculated with a spore suspension of the fungus 1 day after application. The inoculated leaf segments were incubated at 19° C. and 75% relative humidity (rh) under a light regime of 12 hours light/12 hours darkness in a climate cabinet and the activity of a compound was assessed as percent disease control compared to untreated when an appropriate level of disease damage appears in untreated check leaf segments (7 to 9 days after application).
as §2

Row | Structure (SMILES) | pest or weed control at 200 ppm [1] [%] | inhibition of growth at 20 ppm [2] [%] | pest or weed control at 200 ppm [3] [%]
1 | CCN(Cc1ccc(-c2noc(C(F)(F)F)n2)s1)C(=O)C1CC1(F)F (stereo not shown) [Compound 5.15, N-ethyl-2,2-difluoro-N-[[5-[5-(trifluoromethyl)-1,2,4-oxadiazol-3-yl]-2-thienyl]methyl]cyclopropanecarboxamide] | ≥ 80 | ≥ 80 | 
2 | CC(C)N(Cc1ccc(-c2noc(C(F)(F)F)n2)s1)C(=O)C1CC1(F)F (stereo not shown) [Compound 5.33, 2,2-difluoro-N-isopropyl-N-[[5-[5-(trifluoromethyl)-1,2,4-oxadiazol-3-yl]-2-thienyl]methyl]cyclopropanecarboxamide] | ≥ 80 | ≥ 80 | 
3 | CC(C)N(Cc1ccc(-c2noc(C(F)(F)F)n2)s1)C(=O)C1CCC1 [Compound 5.29, N-isopropyl-N-[[5-[5-(trifluoromethyl)-1,2,4-oxadiazol-3-yl]-2-thienyl]methyl]cyclobutanecarboxamide] | ≥ 80 | ≥ 80 | 
4 | COC(C)C(=O)N(Cc1ccc(-c2noc(C(F)(F)F)n2)s1)C(C)C (stereo not shown) [Compound 4.18, N-isopropyl-2-methoxy-N-[[5-[5-(trifluoromethyl)-1,2,4-oxadiazol-3-yl]-2-thienyl]methyl]propanamide] | ≥ 80 | ≥ 80 | 
5 | Cc1ccc(S(=O)(=O)N(C)Cc2ccc(-c3noc(C(F)(F)F)n3)s2)cc1 [Compound 6.28, N,4-dimethyl-N-[[5-[5-(trifluoromethyl)-1,2,4-oxadiazol-3-yl]-2-thienyl]methyl]benzenesulfonamide] | ≥ 80 |  | 
6 | CC(C)N(Cc1ccc(-c2noc(C(F)(F)F)n2)s1)C(=O)C1CCCO1 (stereo not shown) [Compound 5.31, N-isopropyl-N-[[5-[5-(trifluoromethyl)-1,2,4-oxadiazol-3-yl]-2-thienyl]methyl]tetrahydrofuran-2-carboxamide] | ≥ 80 | ≥ 80 | 
7 | CON(Cc1ccc(-c2noc(C(F)(F)F)n2)s1)C(=O)N1CCCO1 [Compound 1.57, N-methoxy-N-[[5-[5-(trifluoromethyl)-1,2,4-oxadiazol-3-yl]-2-thienyl]methyl]isoxazolidine-2-carboxamide] | ≥ 80 | ≥ 80 | 
8 | O=C(CC(F)(F)F)N(Cc1ccc(-c2noc(C(F)(F)F)n2)s1)OCC(F)F [Compound 4.68, N-(2,2-difluoroethoxy)-3,3,3-trifluoro-N-[[5-[5-(trifluoromethyl)-1,2,4-oxadiazol-3-yl]-2-thienyl]methyl]propanamide] | ≥ 80 | ≥ 80 | 
9 | CCC(C)C(=O)N(Cc1ccc(-c2noc(C(F)(F)F)n2)s1)C1CC1 (stereo not shown) [Compound 4.57, N-cyclopropyl-2-methyl-N-[[5-[5-(trifluoromethyl)-1,2,4-oxadiazol-3-yl]-2-thienyl]methyl]butanamide] | ≥ 80 | ≥ 80 | 
10 | O=S(=O)(C1CC1)N(Cc1ccc(-c2noc(C(F)(F)F)n2)s1)C1CC1 [Compound 6.38, N-cyclopropyl-N-[[5-[5-(trifluoromethyl)-1,2,4-oxadiazol-3-yl]-2-thienyl]methyl]cyclopropanesulfonamide] |  | ≥ 80 | ≥ 80
11 | CCC(C)C(=O)N(Cc1ccc(-c2noc(C(F)(F)F)n2)s1)OCC(F)F (stereo not shown) [Compound 4.66, N-(2,2-difluoroethoxy)-2-methyl-N-[[5-[5-(trifluoromethyl)-1,2,4-oxadiazol-3-yl]-2-thienyl]methyl]butanamide] | ≥ 80 | ≥ 80 | 
12 | O=C(N(Cc1ccc(-c2noc(C(F)(F)F)n2)s1)C1CC1)N(CC(F)F)C1CC1 [Compound 5.60, 1,3-dicyclopropyl-1-(2,2-difluoroethyl)-3-[[5-[5-(trifluoromethyl)-1,2,4-oxadiazol-3-yl]-2-thienyl]methyl]urea] |  | ≥ 80 | ≥ 80
13 | O=C(C(=O)N(Cc1ccc(-c2noc(C(F)(F)F)n2)s1)C1CC1)c1ccccc1 [Compound 6.54, N-cyclopropyl-2-oxo-2-phenyl-N-[[5-[5-(trifluoromethyl)-1,2,4-oxadiazol-3-yl]-2-thienyl]methyl]acetamide] |  | ≥ 80 | ≥ 80
14 | CN(Cc1ccc(-c2noc(C(F)(F)F)n2)s1)C(=O)c1ccccc1Cl [Compound 5.17, 2-chloro-N-methyl-N-[[5-[5-(trifluoromethyl)-1,2,4-oxadiazol-3-yl]-2-thienyl]methyl]benzamide] |  | ≥ 80 | ≥ 80
15 | CCC(C)C(=O)N(CC)Cc1ccc(-c2noc(C(F)(F)F)n2)s1 (stereo not shown) [Compound 4.27, N-ethyl-2-methyl-N-[[5-[5-(trifluoromethyl)-1,2,4-oxadiazol-3-yl]-2-thienyl]methyl]butanamide] | ≥ 80 | ≥ 80 | 
16 | CCCS(=O)(=O)N(Cc1ccc(-c2noc(C(F)(F)F)n2)s1)C1CC1 [Compound 6.39, N-cyclopropyl-N-[[5-[5-(trifluoromethyl)-1,2,4-oxadiazol-3-yl]-2-thienyl]methyl]propane-1-sulfonamide] |  | ≥ 80 | ≥ 80
17 | CCN(Cc1ccc(-c2noc(C(F)(F)F)n2)s1)C(=O)C(=O)CC(C)C [Compound 6.44, N-ethyl-4-methyl-2-oxo-N-[[5-[5-(trifluoromethyl)-1,2,4-oxadiazol-3-yl]-2-thienyl]methyl]pentanamide] |  | ≥ 80 | ≥ 80
18 | CCN(Cc1ccc(-c2noc(C(F)(F)F)n2)s1)C(=O)C(=O)c1cccs1 [Compound 6.45, N-ethyl-2-oxo-2-(2-thienyl)-N-[[5-[5-(trifluoromethyl)-1,2,4-oxadiazol-3-yl]-2-thienyl]methyl]acetamide] |  | ≥ 80 | ≥ 80
19 | COC(C)C(=O)N(OC)C(C)c1ccc(-c2noc(C(F)(F)F)n2)s1 (stereo not shown) [Compound 1.49, N,2-dimethoxy-N-[1-[5-[5-(trifluoromethyl)-1,2,4-oxadiazol-3-yl]-2-thienyl]ethyl]propanamide] | ≥ 80 | ≥ 80 | 
20 | O=C(C(=O)N(Cc1ccc(-c2noc(C(F)(F)F)n2)s1)OCC(F)F)c1ccco1 [Compound 6.64, N-(2,2-difluoroethoxy)-2-(2-furyl)-2-oxo-N-[[5-[5-(trifluoromethyl)-1,2,4-oxadiazol-3-yl]-2-thienyl]methyl]acetamide] |  | ≥ 80 | ≥ 80
21 | O=C(C1CCOC1)N(Cc1ccc(-c2noc(C(F)(F)F)n2)s1)OCC(F)F (stereo not shown) [Compound 5.46, N-(2,2-difluoroethoxy)-N-[[5-[5-(trifluoromethyl)-1,2,4-oxadiazol-3-yl]-2-thienyl]methyl]tetrahydrofuran-3-carboxamide] |  | ≥ 80 | ≥ 80
22 | COCCN(CCOC)C(=O)N(Cc1ccc(-c2noc(C(F)(F)F)n2)s1)OC [Compound 1.56, 1-methoxy-3,3-bis(2-methoxyethyl)-1-[[5-[5-(trifluoromethyl)-1,2,4-oxadiazol-3-yl]-2-thienyl]methyl]urea] | ≥ 80 | ≥ 80 | 
